Source: US12410171B2, “Tropomyosin receptor kinase (TRK) degradation compounds and methods of use” (Cullgen (Shanghai), Inc., priority 2020, dated 2025)
Read-outs that look alike come from different tables or passages of the source.

Experiments:
KM12 cells = experiment: KM12 cell viability (CellTiter-Glo); format: cell-based; settings: Homo sapiens
Outline: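 Three-day exposure of KM12 cells (5000/well, RPMI 1640 with 10% FBS, 37 °C, 5% CO2) to compound dilution series, 3-fold over 8 or 11 points (top 1000 nM in the 8-point format) or 2-fold over 12. CellTiter-Glo readout, with IC50 fitted by nonlinear least-squares regression.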

TPM3-TRKA fusion protein = target: T1, TPM3-TRKA fusion protein (Homo sapiens, UniProt P04629); experiment: TPM3-TRKA fusion protein levels in KM12 cells (Western blot); format: cell-based; settings: read-out: Degradation (at 10 nM)
T1 construct: The resulted chimeric proteins always retain the kinase domain of TRK proteins; TPM3 (fusion partner, N-terminal part of tropomyosin alpha-3, P06753); endogenous in cells; host or cells: KM12 colon cancer cells; the other entry of the earlier key: TPM3 (P06753, Tropomyosin alpha-3 chain)
Outline: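 TPM3-TRKA levels were assessed by Western blot with chemiluminescent detection and band densitometry, after SDS-PAGE of BCA-normalized RIPA lysates. Before lysis, KM12 cells received DMSO, compounds or matched control compounds at concentrations including 0.1, 1, 10 and 100 nM and 0.4–30 nM. Exposures lasted 4 h, 8–16 h or 16 h.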

[1] = 72 h, KM12 cell viability, 11-point 3-fold serial dilution, 3 days, CellTiter-Glo, read-out: IC50
[2] = 16 h, TPM3-TRKA degradation in KM12 cells at 10 nM

T1 sequence (P04629 with tags, fused parts or gaps): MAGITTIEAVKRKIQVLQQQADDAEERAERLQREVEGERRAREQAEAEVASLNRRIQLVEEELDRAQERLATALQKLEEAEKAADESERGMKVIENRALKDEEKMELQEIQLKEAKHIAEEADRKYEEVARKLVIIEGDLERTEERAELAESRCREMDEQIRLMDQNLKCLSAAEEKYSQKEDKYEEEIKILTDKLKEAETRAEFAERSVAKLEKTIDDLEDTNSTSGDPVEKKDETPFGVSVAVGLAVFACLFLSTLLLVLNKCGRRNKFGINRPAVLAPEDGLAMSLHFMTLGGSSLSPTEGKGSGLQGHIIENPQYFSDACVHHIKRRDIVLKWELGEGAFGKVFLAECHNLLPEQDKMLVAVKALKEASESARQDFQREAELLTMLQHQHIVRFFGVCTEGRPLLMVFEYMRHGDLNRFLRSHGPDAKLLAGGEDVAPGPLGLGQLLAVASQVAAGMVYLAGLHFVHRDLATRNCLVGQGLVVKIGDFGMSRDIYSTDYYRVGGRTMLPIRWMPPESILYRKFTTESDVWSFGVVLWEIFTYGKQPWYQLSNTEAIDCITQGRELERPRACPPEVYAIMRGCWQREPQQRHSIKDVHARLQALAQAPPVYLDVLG

Compound | percent degradation of TPM3-TRKA protein at 0.01 µM (TPM3-TRKA fusion protein; [2]) [%] | IC50 (KM12 cells; [1]) [nM] | IC50 (KM12 cells; KM12, 72 h) [nM] | percent degradation of TPM3-TRKA protein at 0.01 µM (TPM3-TRKA fusion protein; KM12, 16 h) [%]
O=C1CCC(N2C(=O)c3ccc(NCCOCCOCCOCCOCCOCCC(=O)N4CCC(Nc5cccc(C(=O)Nc6cnn7ccc(N8CCC[C@@H]8c8cc(F)ccc8F)nc67)n5)CC4)cc3C2=O)C(=O)N1 (stereo partly drawn) [CPD-477, N-(5-((R)-2-(2,5-difluorophenyl)pyrrolidin-1-yl)pyrazolo[1,5-a]pyrimidin-3-yl)-6-((1-(1-((2-(2,6-dioxopiperidin-3-yl)-1,3-dioxoisoindolin-5-yl)amino)-3,6,9,12,15-pentaoxaoctadecan-18-oyl)piperidin-4-yl)amino)picolinamide] | 50 to 80 | 51.7 | – | –
NC(=O)C1CCN(c2cc(CN3CCN(C(=O)CNc4cccc5c4C(=O)N(C4CCC(=O)NC4=O)C5=O)CC3)ccc2NC(=O)c2coc(N3CCOCC3)n2)CC1 (stereo not shown) [CPD-478, N-(2-(4-carbamoylpiperidin-1-yl)-4-((4-((2-(2,6-dioxopiperidin-3-yl)-1,3-dioxoisoindolin-4-yl)glycyl)piperazin-1-yl)methyl)phenyl)-2-morpholinooxazole-4-carboxamide] | – | – | 28 | > 80
NC(=O)C1CCN(c2cc(CN3CCN(C(=O)CCNc4cccc5c4C(=O)N(C4CCC(=O)NC4=O)C5=O)CC3)ccc2NC(=O)c2coc(N3CCOCC3)n2)CC1 (stereo not shown) [CPD-479, N-(2-(4-carbamoylpiperidin-1-yl)-4-((4-(3-((2-(2,6-dioxopiperidin-3-yl)-1,3-dioxoisoindolin-4-yl)amino)propanoyl)piperazin-1-yl)methyl)phenyl)-2-morpholinooxazole-4-carboxamide] | 50 to 80 | 132 | – | –
NC(=O)C1CCN(c2cc(CN3CCN(C(=O)CCCNc4cccc5c4C(=O)N(C4CCC(=O)NC4=O)C5=O)CC3)ccc2NC(=O)c2coc(N3CCOCC3)n2)CC1 (stereo not shown) [CPD-480, N-(2-(4-carbamoylpiperidin-1-yl)-4-((4-(4-((2-(2,6-dioxopiperidin-3-yl)-1,3-dioxoisoindolin-4-yl)amino)butanoyl)piperazin-1-yl)methyl)phenyl)-2-morpholinooxazole-4-carboxamide] | > 80 | 22 | – | –
NC(=O)C1CCN(c2cc(CN3CCN(C(=O)CCCCNc4cccc5c4C(=O)N(C4CCC(=O)NC4=O)C5=O)CC3)ccc2NC(=O)c2coc(N3CCOCC3)n2)CC1 (stereo not shown) [CPD-481, N-(2-(4-carbamoylpiperidin-1-yl)-4-((4-(5-((2-(2,6-dioxopiperidin-3-yl)-1,3-dioxoisoindolin-4-yl)amino)pentanoyl)piperazin-1-yl)methyl)phenyl)-2-morpholinooxazole-4-carboxamide] | > 80 | 17 | – | –
NC(=O)C1CCN(c2cc(CN3CCN(C(=O)CCCCCNc4cccc5c4C(=O)N(C4CCC(=O)NC4=O)C5=O)CC3)ccc2NC(=O)c2coc(N3CCOCC3)n2)CC1 (stereo not shown) [CPD-482, N-(2-(4-carbamoylpiperidin-1-yl)-4-((4-(6-((2-(2,6-dioxopiperidin-3-yl)-1,3-dioxoisoindolin-4-yl)amino)hexanoyl)piperazin-1-yl)methyl)phenyl)-2-morpholinooxazole-4-carboxamide] | > 80 | 4.7 | – | –
NC(=O)C1CCN(c2cc(CN3CCN(C(=O)CCCCCCNc4cccc5c4C(=O)N(C4CCC(=O)NC4=O)C5=O)CC3)ccc2NC(=O)c2coc(N3CCOCC3)n2)CC1 (stereo not shown) [CPD-483, N-(2-(4-carbamoylpiperidin-1-yl)-4-((4-(7-((2-(2,6-dioxopiperidin-3-yl)-1,3-dioxoisoindolin-4-yl)amino)heptanoyl)piperazin-1-yl)methyl)phenyl)-2-morpholinooxazole-4-carboxamide] | > 80 | 5.5 | – | –
NC(=O)C1CCN(c2cc(CN3CCN(C(=O)CCCCCCCNc4cccc5c4C(=O)N(C4CCC(=O)NC4=O)C5=O)CC3)ccc2NC(=O)c2coc(N3CCOCC3)n2)CC1 (stereo not shown) [CPD-484, N-(2-(4-carbamoylpiperidin-1-yl)-4-((4-(8˜ ((2-(2,6-dioxopiperidin-3-yl)-1,3-dioxoisoindolin-4-yl)amino)octanoyl)piperazin-1-yl)methyl)phenyl)-2-morpholinooxazole-4-carboxamide] | > 80 | 42 | – | –
NC(=O)C1CCN(c2cc(CN3CCN(C(=O)CCOCCNc4cccc5c4C(=O)N(C4CCC(=O)NC4=O)C5=O)CC3)ccc2NC(=O)c2coc(N3CCOCC3)n2)CC1 (stereo not shown) [CPD-485, N-(2-(4-carbamoylpiperidin-1-yl)-4-((4-(3-(2-((2-(2,6-dioxopiperidin-3-yl)-1,3-dioxoisoindolin-4-yl)amino)ethoxy)propanoyl)piperazin-1-yl)methyl)phenyl)-2-morpholinooxazole-4-carboxamide] | 50 to 80 | 94 | – | –
NC(=O)C1CCN(c2cc(CN3CCN(C(=O)CCOCCOCCOCCNc4cccc5c4C(=O)N(C4CCC(=O)NC4=O)C5=O)CC3)ccc2NC(=O)c2coc(N3CCOCC3)n2)CC1 (stereo not shown) [CPD-487, N-(2-(4-carbamoylpiperidin-1-yl)-4-((4-(3-(2-(2-(2-((2-(2,6-dioxopiperidin-3-yl)-1,3-dioxoisoindolin-4-yl)amino)ethoxy)ethoxy)ethoxy)propanoyl)piperazin-1-yl)methyl)phenyl)-2-morpholinooxazole-4-carboxamide] | 50 to 80 | 121 | – | –
Cc1ncsc1-c1ccc(CNC(=O)[C@@H]2C[C@@H](O)CN2C(=O)[C@@H](NC(=O)CCCCCCCCC(=O)N2CCN(Cc3ccc(NC(=O)c4coc(N5CCOCC5)n4)c(N4CCC(C(N)=O)CC4)c3)CC2)C(C)(C)C)cc1 [CPD-493, N-(2-(4-carbamoylpiperidin-1-yl)-4-((4-(10-(((S)-1-((2S,4R)-4-hydroxy-2-((4-(4-methylthiazol-5-yl)benzyl)carbamoyl)pyrrolidin-1-yl)-3,3-dimethyl-1-oxobutan-2-yl)amino)-10-oxodecanoyl)piperazin-1-yl)methyl)phenyl)-2-morpholinooxazole-4-carboxamide] | 50 to 80 | 46 | – | –

Second part, led by results:

percent degradation of TPM3-TRKA protein at 0.01 µM (TPM3-TRKA fusion protein; [2]) [%] | Compound | IC50 (KM12 cells; [1]) [nM] | IC50 (KM12 cells; KM12, 72 h) [nM] | percent degradation of TPM3-TRKA protein at 0.01 µM (TPM3-TRKA fusion protein; KM12, 16 h) [%]
> 80 | O=C1CCC(N2C(=O)c3ccc(NCCCCCC(=O)N4CCC(Nc5cccc(C(=O)Nc6cnn7ccc(N8CCC[C@@H]8c8cc(F)ccc8F)nc67)n5)CC4)cc3C2=O)C(=O)N1 (stereo partly drawn) [CPD-471, N-(5-((R)-2-(2,5-difluorophenyl)pyrrolidin-1-yl)pyrazolo[1,5-a]pyrimidin-3-yl)-6-((1-(6-((2-(2,6-dioxopiperidin-3-yl)-1,3-dioxoisoindolin-5-yl)amino)hexanoyl)piperidin-4-yl)amino)picolinamide] | 19 | – | –
> 80 | O=C1CCC(N2C(=O)c3ccc(NCCCCCCCC(=O)N4CCC(Nc5cccc(C(=O)Nc6cnn7ccc(N8CCC[C@@H]8c8cc(F)ccc8F)nc67)n5)CC4)cc3C2=O)C(=O)N1 (stereo partly drawn) [CPD-472, N-(5-((R)-2-(2,5-difluorophenyl)pyrrolidin-1-yl)pyrazolo[1,5-a]pyrimidin-3-yl)-6-((1-(8-((2-(2,6-dioxopiperidin-3-yl)-1,3-dioxoisoindolin-5-yl)amino)octanoyl)piperidin-4-yl)amino)picolinamide] | 37 | – | –
> 80 | O=C1CCC(N2C(=O)c3ccc(NCCOCCC(=O)N4CCC(Nc5cccc(C(=O)Nc6cnn7ccc(N8CCC[C@@H]8c8cc(F)ccc8F)nc67)n5)CC4)cc3C2=O)C(=O)N1 (stereo partly drawn) [CPD-473, N-(5-((R)-2-(2,5-difluorophenyl)pyrrolidin-1-yl)pyrazolo[1,5-a]pyrimidin-3-yl)-6-((1-(3-(2-((2-(2,6-dioxopiperidin-3-yl)-1,3-dioxoisoindolin-5-yl)amino)ethoxy)propanoyl)piperidin-4-yl)amino)picolinamide] | 24 | – | –
> 80 | O=C1CCC(N2C(=O)c3ccc(NCCOCCOCCC(=O)N4CCC(Nc5cccc(C(=O)Nc6cnn7ccc(N8CCC[C@@H]8c8cc(F)ccc8F)nc67)n5)CC4)cc3C2=O)C(=O)N1 (stereo partly drawn) [CPD-474, N-(5-((R)-2-(2,5-difluorophenyl)pyrrolidin-1-yl)pyrazolo[1,5-a]pyrimidin-3-yl)-6-((1-(3-(2-(2-((2-(2,6-dioxopiperidin-3-yl)-1,3-dioxoisoindolin-5-yl)amino)ethoxy)ethoxy)propanoyl)piperidin-4-yl)amino)picolinamide] | 18 | – | –
> 80 | O=C1CCC(N2C(=O)c3ccc(NCCOCCOCCOCCC(=O)N4CCC(Nc5cccc(C(=O)Nc6cnn7ccc(N8CCC[C@@H]8c8cc(F)ccc8F)nc67)n5)CC4)cc3C2=O)C(=O)N1 (stereo partly drawn) [CPD-475, N-(5-((R)-2-(2,5-difluorophenyl)pyrrolidin-1-yl)pyrazolo[1,5-a]pyrimidin-3-yl)-6-((1-(3-(2-(2-(2-((2-(2,6-dioxopiperidin-3-yl)-1,3-dioxoisoindolin-5-yl)amino)ethoxy)ethoxy)ethoxy)propanoyl)piperidin-4-yl)amino)picolinamide] | 17 | – | –
> 80 | O=C1CCC(N2C(=O)c3ccc(NCCOCCOCCOCCOCCC(=O)N4CCC(Nc5cccc(C(=O)Nc6cnn7ccc(N8CCC[C@@H]8c8cc(F)ccc8F)nc67)n5)CC4)cc3C2=O)C(=O)N1 (stereo partly drawn) [CPD-476, N-(5-((R)-2-(2,5-difluorophenyl)pyrrolidin-1-yl)pyrazolo[1,5-a]pyrimidin-3-yl)-6-((1-(1-((2-(2,6-dioxopiperidin-3-yl)-1,3-dioxoisoindolin-5-yl)amino)-3,6,9,12-tetraoxapentadecan-15-oyl)piperidin-4-yl)amino)picolinamide] | 22.4 | – | –
